Tests used:
HCMV = assay: Anti-HCMV (anti-human cytomegalovirus) cytopathogenicity test; type: cell-based; details: Human betaherpesvirus 5, NHDF, 144 h, concentration inhibiting the CPE by 50% vs untreated virus control; HCMV-infected NHDF cells, 6 days, visual assessment
Experimental: Anti-HCMV (Anti-Human Cytomegalovirus) Cytopathogenicity Tests The test compounds are employed as 50 millimolar (mM) solutions in dimethyl sulfoxide (DMSO). Ganciclovir®, Foscarnet® and Cidofovir® are used as reference compounds. After the addition of 2 μl of the 50, 5, 0.5 and 0.05 mM DMSO stock solutions respectively to 98 μl portions of cell culture medium in row […] for duplicate determinations, 1:2 dilutions are carried out with 50 μl portions of medium up to row 11 of the 96-well plate. The wells in rows 1 and 12 each contain 50 μl of medium. 150 μl of a suspension of 1×10^4 cells (human prepuce fibroblasts [NHDF]) are then pipetted into each of the wells (row 1=cell control) and, in rows 2-12, a mixture of HCMV-infected and uninfected NHDF cells (M.O.I.=0.001-0.002), i.e. 1-2 infected cells per 1000 uninfected cells. Row 12 (without substance) serves as virus control. The final test concentrations are 250-0.0005 μM. The plates are incubated at 37° C./5% CO2 for 6 days, i.e. until all the cells in the virus controls are infected (100% cytopathogenic effect [CPE]). The wells are then fixed and stained by adding a mixture of formalin and Giemsa's dye (30 minutes), washed with double-distilled water and dried in a drying oven at 50° C. The plates are then assessed visually using an overhead microscope (plaque multiplier from Technomara). The following data can be obtained from the test plates: EC50 (HCMV)=substance concentration in μM which inhibits the CPE (cytopathic effect) by 50% compared with the untreated virus control;

[1] = Cytostatic effects on NHDF cells in the anti-HCMV cytopathogenicity test; type: cell-based, human; details: human, concentration at which no visible cytostatic effects on NHDF cells are evident vs untreated cell control
Experimental: Anti-HCMV (Anti-Human Cytomegalovirus) Cytopathogenicity Tests The test compounds are employed as 50 millimolar (mM) solutions in dimethyl sulfoxide (DMSO). Ganciclovir®, Foscarnet® and Cidofovir® are used as reference compounds. After the addition of 2 μl of the 50, 5, 0.5 and 0.05 mM DMSO stock solutions respectively to 98 μl portions of cell culture medium in row […] for duplicate determinations, 1:2 dilutions are carried out with 50 μl portions of medium up to row 11 of the 96-well plate. The wells in rows 1 and 12 each contain 50 μl of medium. 150 μl of a suspension of 1×10^4 cells (human prepuce fibroblasts [NHDF]) are then pipetted into each of the wells (row 1=cell control) and, in rows 2-12, a mixture of HCMV-infected and uninfected NHDF cells (M.O.I.=0.001-0.002), i.e. 1-2 infected cells per 1000 uninfected cells. Row 12 (without substance) serves as virus control. The final test concentrations are 250-0.0005 μM. The plates are incubated at 37° C./5% CO2 for 6 days, i.e. until all the cells in the virus controls are infected (100% cytopathogenic effect [CPE]). The wells are then fixed and stained by adding a mixture of formalin and Giemsa's dye (30 minutes), washed with double-distilled water and dried in a drying oven at 50° C. The plates are then assessed visually using an overhead microscope (plaque multiplier from Technomara). The following data can be obtained from the test plates: CC50 (NHDF)=substance concentration in μM at which no visible cytostatic effects on the cells are evident compared with the untreated cell control;

EC50 (HCMV) | SMILES | CC50 at 6 days [1]
0.009 µM | CCOC(=O)C1CCN(c2c(F)cc3c(=O)c(C(=O)NCc4ccc(Cl)cc4Cl)cn(CC(F)(F)F)c3c2OC)CC1 [Example 1, Ethyl 1-[3-{[(2,4-dichlorobenzyl)amino]carbonyl}-6-fluoro-8-methoxy-4-oxo-1-(2,2,2-trifluoroethyl)-1,4-dihydroquinolin-7-yl]piperidine-4-carboxylate] | 94 µM
0.005 µM | CCOC(=O)C1CCN(c2c(F)cc3c(=O)c(C(=O)NCc4ccc(OC(F)(F)F)cc4C)cn(CC(F)(F)F)c3c2OC)CC1 [Example 2, Ethyl 1-[6-fluoro-8-methoxy-3-({[2-methyl-4-(trifluoromethoxy)benzyl]amino}carbonyl)-4-oxo-1-(2,2,2-trifluoroethyl)-1,4-dihydroquinolin-7-yl]piperidine-4-carboxylate] | 47 µM
0.008 µM | CCOC(=O)C1CCN(c2c(F)cc3c(=O)c(C(=O)NCc4ccc(OC(F)(F)F)cc4Cl)cn(CC(F)(F)F)c3c2OC)CC1 [Example 3, Ethyl 1-[3-({[2-chloro-4-(trifluoromethoxy)benzyl]amino}carbonyl)-6-fluoro-8-methoxy-4-oxo-1-(2,2,2-trifluoroethyl)-1,4-dihydroquinolin-7-yl]piperidine-4-carboxylate] | 24 µM
0.018 µM | CCOC(=O)C1CCN(c2c(F)cc3c(=O)c(C(=O)NCc4ccc(Cl)cc4C)cn(CC(F)(F)F)c3c2OC)CC1 [Example 7] | 94 µM
0.019 µM | CCOC(=O)C1CCN(c2c(F)cc3c(=O)c(C(=O)NCc4ccc(Cl)cc4Cl)cn([C@H]4C[C@H]4F)c3c2OC)CC1 [Example 13] | 23 µM
0.013 µM | COc1c(N2CCC(C(N)=O)CC2)c(F)cc2c(=O)c(C(=O)NCc3ccc(Cl)cc3Cl)cn(CC(F)(F)F)c12 [Example 27] | 21 µM
0.014 µM | COc1c(N2CCC(C(N)=O)CC2)c(F)cc2c(=O)c(C(=O)NCc3ccc(Cl)cc3C)cn(CC(F)(F)F)c12 [Example 28] | 21 µM
0.034 µM | COc1c(N2CCC(C(N)=O)CC2)c(F)cc2c(=O)c(C(=O)NCc3ccc(C(F)(F)F)cc3C)cn(CC(F)(F)F)c12 [Example 30] | 11 µM
0.008 µM | COc1c(N2CCC(C(N)=O)CC2)c(F)cc2c(=O)c(C(=O)NCc3ccc(OC(F)(F)F)cc3C)cn(CC(F)(F)F)c12 [Example 31, 1-[6-Fluoro-8-methoxy-3-({[2-methyl-4-(trifluoromethoxy)benzyl]amino}carbonyl)-4-oxo-1-(2,2,2-trifluoroethyl)-1,4-dihydroquinolin-7-yl]piperidine-4-carboxamide] | 16 µM
0.017 µM | COc1c(N2C[C@@H](C)[C@@H](O)[C@@H](C)C2)c(F)cc2c(=O)c(C(=O)NCc3ccc(OC(F)(F)F)cc3C)cn(CC(F)(F)F)c12 [Example 32, 6-Fluoro-7-[(all-cis)-4-hydroxy-3,5-dimethylpiperidin-1-yl]-8-methoxy-N-[2-methyl-4-(trifluoromethoxy)benzyl]-4-oxo-1-(2,2,2-trifluoroethyl)-1,4-dihydroquinoline-3-carboxamide] | 11 µM
0.017 µM | COc1c(N2CCC3(CC2)CNC(=O)C3)c(F)cc2c(=O)c(C(=O)NCc3ccc(OC(F)(F)F)cc3C)cn(CC(F)(F)F)c12 [Example 33, 6-Fluoro-8-methoxy-N-[2-methyl-4-(trifluoromethoxy)benzyl]-4-oxo-7-(3-oxo-2,8-diazaspiro[4.5]dec-8-yl)-1-(2,2,2-trifluoroethyl)-1,4-dihydroquinoline-3-carboxamide] | 19 µM
0.04 µM | COc1c(N2CCC3(CC2)CNC(=O)C3)c(F)cc2c(=O)c(C(=O)NCc3ccc(OC(F)(F)F)cc3C)cn(C3CC3)c12 [Example 34, 1-Cyclopropyl-6-fluoro-8-methoxy-N-[2-methyl-4-(trifluoromethoxy)benzyl]-4-oxo-7-(3-oxo-2,8-diazaspiro[4.5]dec-8-yl)-1,4-dihydroquinoline-3-carboxamide] | 11 µM

Source: US7977349B2, “Substituted quinolones III” (Aicuris GmbH & Co. KG, priority 2006, dated 2011)
